Key:
[1] = tested on: genes encoding BiP1,2, BiP3, CNX1 and CRT1; assay: Real-time quantitative PCR of endoplasmic reticulum chaperone genes in A. thaliana leaves; format: in vivo, Arabidopsis thaliana; conditions: 44 hours post-inoculation, FIG. 3
Procedure: The 4-PBA solutions used in the experiments described hereinafter were prepared as described in Example 1.
The infection with Pst (avirulent strain DC3000::AvrRpt2) was carried out under the same conditions as those described above. An additional condition was added, corresponding to the infiltration of a solution of 4-PBA (1 mM) alone into the A. thaliana leaves.
Samples were harvested 44 hours post-inoculation, frozen in liquid nitrogen and then stored at −80° C. until total RNA extraction. The total RNA was reverse transcribed so as to synthesize cDNAs. These cDNAs were used as a template in real-time quantitative PCR experiments. Primers specific for the genes encoding the binding proteins (BiP1,2 and BiP3), calnexin 1 (CNX1) and calreticulin 1 (CRT1) were designed so as to measure the expression of these genes. The expression of the genes of interest was standardized with respect to that of an actin gene. These experiments were repeated once, including one as a duplicate per experiment.

[2] = tested on: hypersensitive cell death induced by cryptogein; assay: Hypersensitive cell death induced in tobacco by cryptogein (data not shown); format: in vivo
Procedure: (§1) The effect of 4-PBA on cell death of hypersensitive nature was tested on several pathosystems, including those presented in FIGS. 1 & 2, namely Gossypium hirsutum/Xanthomonas campestris pv. malvacearum and Arabidopsis thaliana/Pseudomonas syringae. pv. tomato, respectively. […] The latter data concern hypersensitive cell death induced in tobacco by an elicitor of fungal origin, cryptogein, and nonhost hypersensitive cell death in tobacco interacting with the bacterium Pseudomonas syringae pv. tomato.

[3] = tested on: nonhost hypersensitive cell death induced by Pseudomonas syringae pv. tomato; assay: Nonhost hypersensitive cell death in tobacco interacting with Pseudomonas syringae pv. tomato (data not presented); format: in vivo
Procedure: as §1

[4] = tested on: hypersensitive cell death induced by Pseudomonas syringae pv. tomato (Pst, avirulent strain DC3000::AvrRpt2); assay: Hypersensitive cell death induced by Pst infiltration into Arabidopsis thaliana leaves; format: in vivo; conditions: 4-PBA 1 mM co-infiltrated with Pst DC3000::AvrRpt2 at 10^7 cfu/ml; six days post-inoculation; FIG. 2
Procedure: (§2) A stock solution of 4-PBA (10 mM) was prepared extemporaneously by dissolving powder in sterile distilled water. In order to allow complete dissolution of the 4-PBA, the solution was heated at 50° C. for 10 minutes.
The bacteria (Pst, avirulent strain DC3000::AvrRpt2) were cultured overnight in a rich nutritive medium (King B). After sedimentation by centrifugation, said bacteria were washed with sterile distilled water before being resuspended at a concentration of 10^7 cfu/ml. The resuspending of the cells is carried out either in sterile distilled water, or in a solution of 4-PBA at 1 mM. These suspensions were then infiltrated into the leaves of the Arabidopsis thaliana rosette. The macroscopic symptoms were monitored over a period of six days post-inoculation.

[5] = tested on: hypersensitive cell death induced by Xanthomonas campestris pv. malvacearum (Xcm, race 18); assay: Hypersensitive cell death induced by Xcm infiltration into cotton plant cotyledons; format: in vivo, Gossypium hirsutum; conditions: 4-PBA 2 mM co-infiltrated with Xcm race 18 at 10^8 cfu/ml; four days after inoculation; FIG. 1
Procedure: as §2
The Xanthomonas campestris pv. malvacearum bacteria (Xcm, race 18) were cultured overnight in a rich nutritive medium (King B). After sedimentation by centrifugation, said bacteria were washed with sterile distilled water before being resuspended at a concentration of 10^8 cfu/ml. The resuspending of the cells is carried out either in sterile distilled water, or in a solution of 4-PBA at 2 mM. These two types of suspensions were infiltrated into cotton plant (Gossypium hirsutum) cotyledons on each side of the central vein for comparison.

[6] = tested on: genes encoding BiP proteins; assay: Real-time quantitative PCR of BiP genes in tobacco leaves; format: in vivo, Nicotiana tabacum; conditions: 4-PBA infiltrated into tobacco leaves; FIG. 4B
Procedure: (§3) The concentration range presented in FIG. 4A was produced by infiltration into tobacco leaves of 4-PBA solutions at 0.5, 1, 2.5 and 5 mM. The macroscopic symptoms were evaluated 48 hours post-infiltration. Samples were also harvested at the times indicated in FIG. 4B and treated as described above so as to be analyzed by real-time quantitative PCR. Primers specific for all of the nine genes encoding BiP proteins were designed for this purpose.

[7] = tested on: tobacco leaves (plant cells); assay: Concentration range infiltrated into tobacco leaves, macroscopic symptoms; format: in vivo, Nicotiana tabacum; conditions: 4-PBA at 0.5, 1, 2.5 and 5 mM infiltrated into tobacco leaves; 48 hours post-infiltration; FIG. 4A
Procedure: as §3

Xcm race 20 = assay: In vitro bacterial growth in King B liquid medium, absorbance at 600 nm; format: cell-based, Xanthomonas campestris pv. malvacearum; conditions: 4-PBA 1 mM in King B liquid medium; approximately 16 hours, 30° C.; FIG. 5
Procedure: The effect of 4-PBA on phytopathogenic bacteria was tested in vitro on the bacterial strain Xcm race 20. The strain was cultured in King B liquid medium in the presence or absence of 4-PBA. The 4-PBA solution was prepared extemporaneously as described above. The nutritive medium was inoculated either using glycerol stocks, or using bacterial colonies freshly cultured in solid medium. The nutritive medium was then supplemented with the 4-PBA solution in order to achieve a final concentration of 1 mM (final volume of 10 ml). […] The tubes were then incubated overnight (approximately 16 hours) with gentle shaking at 30° C. The bacterial growth was then measured by nephelometry by measuring the absorbance of an aliquot of the bacterial cultures at 600 nm. This experiment was repeated three times. Each experiment contained one technical triplicate per condition, i.e. condition with 4-PBA and condition without 4-PBA.

O=C(O)CCCc1ccccc1 [4-PBA, 4-phenylbutyric acid]
expression of genes encoding chaperone proteins (BiP1,2, BiP3, CNX1, CRT1) ([1]; 4-PBA 1 mM infiltrated alone, standardized to actin): significantly induce the expression of genes encoding chaperone proteins
expression of BiP1,2, CNX1 and CRT1 genes, 4-PBA combined with Pst infection ([1]; 4-PBA 1 mM plus Pst): synergistic effect
hypersensitive cell death induced by cryptogein in tobacco [2]: repress hypersensitive cell death
nonhost hypersensitive cell death in tobacco with Pseudomonas syringae pv. tomato [3]: confirm the anti-cell death properties
hypersensitive symptoms (macroscopic) in A. thaliana leaves [4]: capable of abolishing the hypersensitive symptoms
hypersensitive symptoms (macroscopic) in cotton plant cotyledonary leaves [5]: strongly represses the hypersensitive symptoms
BiP gene expression in tobacco [6]: capable of inducing BiP gene expression in tobacco
toxicity to plant cells (macroscopic symptoms) [7]: not toxic to the plant cells
bacterial growth (absorbance at 600 nm) (Xcm race 20): strongly inhibits the growth

— patent US9730442B2, “Use of 4-phenylbutyric acid for improving the tolerance of plants to harmful biological organisms” (INSTITUT DE RECHERCHE POUR LE DÉVELOPPEMENT (IRD), priority 2012, dated 2017)
